# Reference: US20170107179A1 (Tetraphase Pharmaceuticals, Inc., priority 2010, published 2017)
# Like-named read-outs stand apart in the source and are kept apart here.
# How the values were obtained:
# [1] = Non-GLP monkey pharmacokinetics; type: in vivo; conditions: cynomolgus monkeys; for half-life: read-out: T½ (converted)
# Method: As a result of promising pharmacokinetic data in Sprague Dawley rats,^a Compound 102 was evaluated in 3 non-naîve cynomolgus monkeys. […] Nine to ten plasma samples were drawn for each dosing route up to 24 hours into heparin-coated vacutainer tubes. Dose formulations were verified with a 5-point calibration curve. The plasma concentration of the compound was quantified by LC/MS/MS using an internal standard. Quality control (QC) samples (low, medium, high; minimum of 6 standards with LLOQ<3 ng/mL) and standard curves (in duplicate) were included in the bioanalytical run. WinNonLin was used to determine individual and mean PK parameters±standard deviation (F, Cmax, Tmax, T½, CL, Vss, AUC(0-t), AUC(0-∞), and MRT).
# S. aureus Smith = assay: Mouse systemic infection (septicemia) model, CD-1 mice; conditions: Staphylococcus aureus, in Mus musculus, 48 h
# E. coli DH10B EC971 LacZ = assay: MIC, E. coli DH10B recombinantly expressing control gene; conditions: E. coli DH10B, arabinose-induced, ampicillin in medium
# [2] = tested on: Viridans group streptococci; assay: Broth microdilution MIC by tetracycline resistance phenotype (Table 10); type: cell-based; design: unit not given beside the values
# [3] = tested on: evaluated pathogens by tetracycline phenotype; assay: Broth microdilution MIC by tetracycline phenotype (Table 14)
# [4] = tested on: E. coli DH10B EC1153 Tet(X); assay: MIC, E. coli DH10B recombinantly expressing tetracycline-resistance gene; conditions: arabinose-induced, ampicillin in medium
# E. coli DH10B EC970 TetK = assay: as above; conditions: arabinose-induced, ampicillin in medium
# [5] = tested on: Gram-negative respiratory pathogens; assay: Broth microdilution MIC, respiratory pathogens; type: cell-based; conditions: generally
# E. coli DH10B EC969 TetM = assay: MIC, E. coli DH10B recombinantly expressing tetracycline-resistance gene; conditions: arabinose-induced, ampicillin in medium
# S. maltophila = assay: Broth microdilution MIC by tetracycline resistance phenotype (Table 10); type: cell-based; design: unit not given beside the values
# [6] = cynomolgus monkey, plasma, IV 1 mg/kg, average of 3
# [7] = cynomolgus monkey, plasma, PO 10 mg/kg, average of 3
# [8] = Enterococcus faecium, E. faecium, TET NS, N=40
# [9] = Enterococcus faecium, E. faecium, TET S, N=60
# [10] = Streptococcus agalactiae, S. agalactiae, TET NS, N=39
# [11] = Streptococcus agalactiae, S. agalactiae, TET S, N=11
# [12] = Streptococcus pneumoniae, S. pneumoniae, TET NS, N=46
# [13] = Streptococcus pneumoniae, S. pneumoniae, TET S, N=54
# [14] = Streptococcus pyogenes, S. pyogenes, TET S, N=44
compound,measurement,setting,value
CN(C)[C@@H]1C(O)=C(C(N)=O)C(=O)[C@@]2(O)C(O)=C3C(=O)c4c(O)c5c(c(F)c4C[C@H]3C[C@@H]12)CN(C(C)(C)C)C5 [Compound 102],AUC(0-inf),[1]; [6],9310 ng·h/mL
same,AUC(0-t),[1]; [6],4850 ng·h/mL
same,clearance,[1]; [6],1.86 mL/min/kg
same,half-life,[1]; [6],23.3 h
same,Vd,"[1]; cynomolgus monkey, plasma, IV 1 mg/kg, average of 3, read-out: Vdss",3.4 L/kg
same,bioavailability,"[1]; cynomolgus monkey, plasma, PO 10 mg/kg vs IV 1 mg/kg",33.7%
same,AUC(0-inf),[1]; [7],35400 ng·h/mL
same,AUC(0-t),[1]; [7],16300 ng·h/mL
same,Cmax,[1]; [7],1260 ng/mL
same,Tmax,[1]; [7],4 h
same,half-life,[1]; [7],24.8 h
same,Co,"[1]; IV 1 mg/kg, average of 3",3170 ng/mL
same,responders at 3 mg/kg,"S. aureus Smith; iv, read-out: Percent survival at 48 hours, IV (3 mg/kg)",100%
same,responders at 30 mg/kg,"S. aureus Smith; po, read-out: Percent survival at 48 hours, PO (30 mg/kg)",83%
same,MIC EC971 LacZ,E. coli DH10B EC971 LacZ,2
same,MIC50,"[2]; TET NS, n=32",0.12
same,MIC90,"[2]; TET NS, n=32",0.25
same,MIC50,"[2]; TET S, n=65",0.06
same,MIC90,"[2]; TET S, n=65",0.12
same,"MICs, fold higher against tetracycline resistant isolates relative to tetracycline susceptible isolates",[3],2-4 fold
same,MIC50,[3]; [8],0.25 µg/mL
same,MIC90,[3]; [8],0.5 µg/mL
same,MIC50,[3]; [9],0.12 µg/mL
same,MIC90,[3]; [9],0.12 µg/mL
same,MIC50,"[3]; F. faecalis, TET NS, N=71",0.5 µg/mL
same,MIC90,"[3]; F. faecalis, TET NS, N=71",1 µg/mL
same,MIC50,"[3]; F. faecalis, TET S, N=30",0.12 µg/mL
same,MIC90,"[3]; F. faecalis, TET S, N=30",0.25 µg/mL
same,MIC50,[3]; [10],0.5 µg/mL
same,MIC90,[3]; [10],0.5 µg/mL
same,MIC50,[3]; [11],0.12 µg/mL
same,MIC90,[3]; [11],0.12 µg/mL
same,MIC50,[3]; [12],0.12 µg/mL
same,MIC90,[3]; [12],0.12 µg/mL
same,MIC50,[3]; [13],0.06 µg/mL
same,MIC90,[3]; [13],0.12 µg/mL
same,MIC50,"[3]; Streptococcus pyogenes, S. pyogenes, TET NS, N=6",0.25 µg/mL
same,MIC50,[3]; [14],0.12 µg/mL
same,MIC90,[3]; [14],0.12 µg/mL
same,MIC EC1153 Tet(X),[4],4
same,MIC EC970 TetK,E. coli DH10B EC970 TetK,0.5
same,"MICs, fold higher than those of tigecycline",[5],2-4 fold
same,MIC EC969 TetM,E. coli DH10B EC969 TetM,1
same,MIC50,"S. maltophila; TET NS, n=19",1
same,MIC90,"S. maltophila; TET NS, n=19",4
same,MIC50,"S. maltophila; TET S, n=10",0.5
same,MIC90,"S. maltophila; TET S, n=10",0.5
